Values quoted from earlier work in patent US20030072777A1, “Combinatorial anti-acne compositions” (priority 2001, published 2003).
Like-named read-outs stand apart in the source and are kept apart here.

Columns and labels:
[1] = test system: inflammatory lesions and comedones of acne vulgaris
P. acnes = conditions: 5 percent benzoyl peroxide two times daily for five days
sebaceous glands = conditions: retinoid treatment

In the case of `O=C(OOC(=O)c1ccccc1)c1ccccc1` [5.0% Benzoyl peroxide, Benzoyl peroxide], the “Average percent reduction of non-inflamed lesions (mean comedone counts)” value ([1]; Week 2, data from Chalker et al. FIG. 1) is given as 12%, the “Average percent reduction of inflamed lesions (mean inflammatory lesion counts)” value ([1]; Week 2, data from Chalker et al. FIG. 4) is given as 27% and the “Average percent reduction of non-inflamed lesions (mean comedone counts)” value ([1]; Week 4, data from Chalker et al. FIG. 1) is given as 15%. For the same compound, the “Average percent reduction of inflamed lesions (mean inflammatory lesion counts)” value ([1]; Week 4, data from Chalker et al. FIG. 4) was 21%, the “Average percent reduction of non-inflamed lesions (mean comedone counts)” value ([1]; Week 6, data from Chalker et al. FIG. 1) was 28% and the “Average percent reduction of inflamed lesions (mean inflammatory lesion counts)” value ([1]; Week 6, data from Chalker et al. FIG. 4) was 46%. For the same compound, the “Reduction of P. acnes population” value (P. acnes) was “more than 95%”.
For `CC1=C(/C=C/C(C)=C/C=C/C(C)=C\C(=O)O)C(C)(C)CCC1` [isotretinoin, 13-cis retinoic acid], the “Shrinkage of the glands” value (sebaceous glands) is listed as “about 90%”.
